Measurements published in PMC7910394, “Design of PSMA ligands with modifications at the inhibitor part: an approach to reduce the salivary gland uptake of radiolabeled PSMA inhibitors?” (EJNMMI Radiopharmacy and Chemistry, 2021).

What was measured:
PSMA = biological target: T1, PSMA (Homo sapiens, UniProt Q04609); assay: Competitive binding assay (IC50) on LNCaP cells with ([125I]I-BA)KuE as radioligand; conditions: ([125I]I-BA)KuE 0.2 nM, HBSS (1% BSA), 4 °C, 1 h
T1 construct: host or cells: LNCaP human prostate cancer cells
Method: (§1) PSMA-positive LNCaP cells (300265; Cell Lines Service, Eppelheim, Germany) were cultivated in Dulbecco’s modified Eagle medium/Nutrition Mixture F-12 with GlutaMAX (1/1, DMEM-F12, Thermo Fisher Scientific, Darmstadt, Germany) supplemented with 10% fetal bovine serum (Merck KGaA, Darmstadt, Germany) and kept at 37 °C in a humidified 5% CO2 atmosphere. One day (24 ± 2 h) prior to all in vitro experiments, the cultivated LNCaP cells were harvested using a mixture of trypsin/ethylenediamine-tetraacetic acid (0.05%/0.02%) in PBS (Thermo Fisher Scientific, Darmstadt, Germany) and centrifuged at 1300 rpm (ca. 190×g) for 3 min at room temperature (Heraeus Megafuge 16, Thermo Fisher Scientific, Darmstadt, Germany). After centrifugation, the supernatant was disposed and the cell pellet was resuspended in culture medium. Cells were counted with a Neubauer hemocytometer (Paul Marienfeld GmbH & Co. KG, Lauda-Königshofen, Germany) and seeded in 24-well plates.
(§2) Detailed information on affinity and internalization experiments is provided in the supporting information. […] IC50 values of (^natI-BA)KuE were determined on the same day for monitoring assay performance and to identify abnormal deviations in uptake and/or affinity. […] Data were corrected for non-specific binding and normalized to the specific internalization observed for the radioiodinated reference compound (n = 3).
The culture medium was removed and the cells were washed with 500 µL of Hank’s balanced salt solution (HBSS) (Merck KGaA, Darmstadt, Germany), containing 1% bovine serum albumin (BSA) (Merck KGaA, Darmstadt, Germany). Afterwards, 200 µL of HBSS (1% BSA) were added to each well and equilibrated on ice (4 °C) for 15 min. […] Experiments were carried out in triplicates for each concentration. The final concentrations of unlabeled ligand ranged from 10^-11 - 10^-5 M and the final radioligand concentration was 0.2 nM in all binding assays. The cells were incubated for one hour at 4 °C. Incubation was terminated by removal of the incubation medium. The cells were washed with 250 µL of HBSS (1% BSA) and the wash medium was combined with the respective supernatant. This fraction represents the amount of free radioligand. The cells were lysed by addition of 250 µL of 1 M aqueous NaOH. The lysate of each well was transferred to the respective vial as well as 250 µL of 1 M NaOH used for rinsing the well. Quantification of the amount of free and bound activity was performed in a γ-counter. The corresponding IC50 values were calculated using the GraphPad PRISM7 software.

[1] = tested on: LNCaP tumor xenograft-bearing CB17-SCID mice; type: in vivo, mouse; conditions: 24 h p.i.
Method: All animal experiments were conducted in accordance with general animal welfare regulations in Germany (German animal protection act, as amended on 18.05.2018, Art. 141 G v. 29.3.2017 I 626, approval no. 55.2–1-54-2532-71-13) and the institutional guidelines for the care and use of animals. To establish tumor xenografts, LNCaP cells (approx. 10^7 cells) were suspended in 200 μL of a 1/1 mixture (v/v) of DMEM F-12 and Matrigel (BD Biosciences, Heidelberg, Germany) and inoculated subcutaneously onto the right shoulder of 6–8 weeks old CB17-SCID mice (Charles River Laboratories, Sulzfeld, Germany). Mice were used for experiments when tumor size reached 5–10 mm in diameter (3–6 weeks after inoculation).
(§3) Approximately 2–10 MBq (0.20 nmol) of the ^177Lu-labeled PSMA inhibitors were injected into the tail vein of LNCaP tumor xenograft-bearing male CB17-SCID mice (n = 3 to 5). They were sacrificed by CO2 asphyxiation and cervical dislocation either 1 h or 24 h post injection (p.i.) (n = 3 for [^177Lu]Lu-5, -6 & -7 (proinhibitor compounds I-III), n = 4 for [^177Lu]Lu-10 (alkyne), n = 5 for [^177Lu]Lu-3 (carbamate I) and n = 5 for [^177Lu]Lu-11 (tetrazole)). Selected organs were removed, weighed and organ activities measured in a γ-counter.
as §3, with “2 - 10” for “2–10”, “(alkyne) and” for “(alkyne),”

LNCaP cells = assay: Internalization study of 177Lu-labeled ligands in LNCaP cells, normalized to ([125I]I-BA)KuE; type: cell-based, human; conditions: 1 h, 37 °C, 1.0 nM 177Lu-compound, normalized to ([125I]I-BA)KuE
Method: as §1, §2
The culture medium was removed and the cells were washed with 500 µL of DMEM-F12 containing 5% BSA. Afterwards, 200 µL of DMEM-F12 (5% BSA) were added to each well and left to equilibrate at 37 °C for 15 min. 25 µL of DMEM-F12 (5% BSA) were added to each well, followed by the addition of 25 µL of the respective ^177Lu-labeled ligand (10.0 nM in DMEM-F12 (5% BSA)). For blocking PSMA-specific binding and uptake, 25 µL of 2-(phosphonomethyl)pentane-1,5-dioic acid (2-PMPA) (100 µM in DMEM (5% BSA)) instead of DMEM-F12 (5% BSA) were added prior to radiotracer addition. […] Each experiment (control and blockade) was performed in triplicate. […] Incubation was terminated by placing the plate on ice (4 °C, 1 min) and removal of the incubation medium. The cells were washed with 250 µL of ice-cold PBS and the wash medium was combined with the respective supernatant. This fraction represents the amount of free radioligand. 250 µL of ice-cold 2-PMPA (10 µM in PBS) were added and the cells were incubated for 10 min at 4 °C. Afterwards, the cells were rinsed again with 250 µL of ice-cold PBS and the wash medium was combined with the respective supernatant. This fraction represents the amount of cell surface-bound ligand. In the last step, the cells were lysed by addition of 250 µL of 1 M aqueous NaOH. After 20 min, the lysate of each well was transferred to the respective vial as well as 250 µL of 1 M NaOH used for rinsing the well. This fraction represents the amount of internalized radioligand. Quantification of the amount of free, cell surface-bound and internalized activity was performed in a γ-counter.

T1 sequence (Q04609 whole entry): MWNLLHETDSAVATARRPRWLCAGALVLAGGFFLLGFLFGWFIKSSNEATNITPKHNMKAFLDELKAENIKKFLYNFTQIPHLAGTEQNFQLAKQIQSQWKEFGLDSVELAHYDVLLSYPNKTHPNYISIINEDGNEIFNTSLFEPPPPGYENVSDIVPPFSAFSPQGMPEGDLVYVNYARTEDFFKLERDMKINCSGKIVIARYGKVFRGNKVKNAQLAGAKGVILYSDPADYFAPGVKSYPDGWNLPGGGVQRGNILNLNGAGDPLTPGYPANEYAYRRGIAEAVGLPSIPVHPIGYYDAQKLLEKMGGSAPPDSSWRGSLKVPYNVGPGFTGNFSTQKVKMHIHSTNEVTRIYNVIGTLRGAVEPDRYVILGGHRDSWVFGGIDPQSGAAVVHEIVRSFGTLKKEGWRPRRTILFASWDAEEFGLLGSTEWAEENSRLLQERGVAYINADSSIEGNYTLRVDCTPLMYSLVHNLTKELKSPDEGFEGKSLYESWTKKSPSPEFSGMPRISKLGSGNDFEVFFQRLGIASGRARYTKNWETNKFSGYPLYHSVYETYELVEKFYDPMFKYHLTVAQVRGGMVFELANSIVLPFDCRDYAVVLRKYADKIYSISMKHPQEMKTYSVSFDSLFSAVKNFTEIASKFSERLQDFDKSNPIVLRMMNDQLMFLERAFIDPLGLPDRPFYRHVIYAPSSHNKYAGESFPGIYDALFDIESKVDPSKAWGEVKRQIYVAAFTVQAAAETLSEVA

CC(C)(C)[Si](F)(c1ccc(C(=O)NC[C@@H](NC(=O)CN2CCN(CC(=O)[O-])CCN(CC(=O)[O-])CCN(CC(=O)[O-])CC2)C(=O)N[C@H](CCCCNC(=O)CCC(=O)NCCC[C@@H](NC(=O)CC[C@H](NC(=O)N[C@@H](Cc2ccco2)C(=O)O)C(=O)O)C(=O)O)C(=O)O)cc1)C(C)(C)C.[Lu+3] [^natLu-9]
IC50 (PSMA): > 440 nM

C#CC[C@H](NC(=O)N[C@@H](CCC(=O)N[C@H](CCCNC(=O)CCC(=O)NCCCC[C@@H](NC(=O)[C@@H](CNC(=O)c1ccc([Si](F)(C(C)(C)C)C(C)(C)C)cc1)NC(=O)CN1CCN(CC(=O)[O-])CCN(CC(=O)[O-])CCN(CC(=O)[O-])CC1)C(=O)O)C(=O)O)C(=O)O)C(=O)O.[Lu+3] [^natLu/[^177Lu]Lu-10]
Biodistribution Adrenals [1]: 0.02 ± 0.02 % ID/g
Biodistribution Blood [1]: 0.01 ± 0.01 % ID/g
Biodistribution Bone [1]: 0.03 ± 0.01 % ID/g
Biodistribution Heart [1]: 0.01 ± 0.00 % ID/g
Biodistribution Intestine [1]: 0.32 ± 0.29 % ID/g
Biodistribution Kidneys [1]: 1.29 ± 0.28 % ID/g
Biodistribution Liver [1]: 0.09 ± 0.04 % ID/g
Biodistribution Lung [1]: 0.03 ± 0.03 % ID/g
Biodistribution Pancreas [1]: 0.01 ± 0.01 % ID/g
Biodistribution Parotid gland [1]: 0.02 ± 0.00 % ID/g
Biodistribution Spleen [1]: 0.04 ± 0.00 % ID/g
Biodistribution Stomach [1]: 0.12 ± 0.11 % ID/g
Biodistribution Submandibular gland [1]: 0.02 ± 0.00 % ID/g
Biodistribution Tumor [1]: 0.10 ± 0.03 % ID/g
Ratio Tumor-to-blood [1]: 26.8 ± 16.9
Ratio Tumor-to-kidney [1]: 0.08 ± 0.01
Ratio Tumor-to-liver [1]: 1.46 ± 0.88
Ratio Tumor-to-muscle [1]: 27.7 ±10.9
Ratio Tumor-to-parotid gland [1]: 6.38 ± 3.06
Ratio Tumor-to-submandibular gland [1]: 6.11 ± 1.78
factor by which tumor-to-submandibular gland and tumor-to-parotid gland ratios are lower than for [177Lu]Lu-1 [1]: 45
IC50 (PSMA): 138 ± 53 nM
%Internalization compared to the reference (LNCaP cells): 1 h: 1.2 ± 0.4%
%Internalization compared to the reference (LNCaP cells; listed as [^177Lu]Lu-10): 1.2 ± 0.4%
